From US8021853B2, “Inhibition of the β3 subunit of L-type Ca2+ channels” (priority 2002, dated 2011)

How the values were obtained:
[1] = system: islets from β3−/− mice compared to wild type mice; assay: increase in [Ca2+]i on addition of 2.5 mM extracellular Ca2+ after depletion of the Ca2+-pool; assay type: cell-based, mouse; details: 2 μM; Ca2+-pool depleted
Description: (§1) The whole-cell configuration of the patch-clamp technique was performed as follows: pipettes were pulled from borosilicate glass, coated with Sylgard near the tips and fire-polished. The pipettes ([…]) were filled with a solution containing 150 mM N-methyl-D-glucamine, 125 mM HCl, 1.2 mM MgCl2, 10 mM EGTA, 5 mM HEPES and 3 mM MgATP. pH was adjusted to 7.15 with KOH. Bath buffer contained (in mM) NaCl 138, KCl 5.6, MgCl2 1.2, CaCl2 10, HEPES 5 and pH 7.4. Islets or isolated cells were loaded with 2 μM fura 2/AM for 30 min in KRBB. For measurements of CCh (carbamylcholine) effects in Ca^2+-free medium, KRBB containing no Ca^2+ and 100 μM EGTA was used. After loading, a single islet or cells attached to a coverslip were transferred to an open perfusion chamber and maintained at 37° C. Measurements of 340/380 nm fluorescence ratio, reflecting [Ca^2+]i, were done as described in the art (Zaitsev, S. V. et al. 1995, Proc. Natl. Acad. Sci. USA 92:9712-9716). Time constant of decay in [Ca^2+]i was calculated with a double exponential decay equation using quasi Newton algorithm (Statistica for Windows, v. 5.0, StatSoft, Inc., USA). For measurements of [Ca^2+]ER, the low affinity Ca^2+-sensitive fluorescent dye X-Rhod-5N (Molecular Probes) was employed. […] were incubated with 5 μM X-Rhod-5N/AM for 1 hour at 4° C. to ensure dye loading into intracellular compartments. […]

[2] = system: islets from both β3−/− and wild type mice; assay: carbamylcholine-induced activation of PLC, [Ca2+]i in islets; assay type: cell-based, mouse
Description: as §1

[3] = system: islets from both wild type and β3−/− mice; assay: glucose-induced [Ca2+]i oscillations in islets/β-cells (fura-2 340/380 nm fluorescence ratio); assay type: cell-based, mouse
Description: Changes in [Ca^2+]i were next evaluated. […] The changes in [Ca^2+]i subsequent to the initial increase were categorized into three groups: slow oscillations (period of approximately 160 seconds), fast oscillations (period of approximately 10 seconds) and no oscillations. In wild type mice, 43 recordings (43 islets) were made.

[4] = system: islets from control and β3−/− mice; assay: insulin release in response to glucose from isolated islets; assay type: cell-based, mouse; details: islets treated with thapsigargin
Description: Islets of Langerhans were isolated by collagenase digestion and maintained overnight in RPMI 1640 culture medium (Flow Laboratories, UK). Single cells, obtained by shaking the islets in Ca^2+-free medium, were seeded into plastic dishes. For measurements of insulin release, islets were pre-incubated in Krebs-Ringer bicarbonate buffer (KRBB) for 30 min at 37° C. Groups of 3 islets were transferred to tubes containing 0.3 ml KRBB with test substances and incubated for another 30 min at 37° C. The incubation was terminated by cooling the samples on ice. Samples were stored at −20° C. until insulin was analyzed.
To further verify this notion, changes in [Ca^2+]i and insulin exocytosis were measured simultaneously, applying a depolarizing pulse protocol mimicking an oscillatory versus a monophasic increase in [Ca^2+]i.

[5] = system: islets from both wild type and β3−/− mice; details: treatment of β-cells; Roe et al. 1998; cited from earlier work

[Gd] [gadolinium]
effect on the increase in [Ca2+]i after addition of 2.5 mM extracellular Ca2+ [1]: did not affect

C[N+](C)(C)CCOC(N)=O.[Cl-] [Carbamylcholine, carbamylcholine]
effect on [Ca2+]i [2]: produced a transient increase in [Ca^2+]i

NCCOB(c1ccccc1)c1ccccc1 [2-APB, 2-aminoethoxydiphenyl borane]
effect on [Ca2+]i oscillations (blocking the InsP3-receptor) ([3]; β-cells from β3−/− mice): transformed [Ca^2+]i oscillations from fast into slow

C/C=C(/C)C(=O)O[C@H]1C(C)=C2[C@H]([C@@H]1OC(=O)CCCCCCC)[C@@](C)(OC(C)=O)C[C@H](OC(=O)CCC)[C@@]1(O)[C@H]2OC(=O)[C@@]1(C)O [thapsigargin]
insulin release in response to glucose, control versus β3−/− mice [4]: no different
effect on [Ca2+]i oscillations [5]: transform [Ca^2+]i oscillations into a monophasic elevation in [Ca^2+]i
effect on glucose-induced oscillations in [Ca2+]i ([3]; 1 μM, 30 min preincubation, islets from both wild type and β3−/− mice): prevented glucose-induced oscillations in [Ca^2+]i
